Consider four compounds from paper PMC9573605, “Exploring Nitric Oxide (NO)-Releasing Celecoxib Derivatives as Modulators of Radioresponse in Pheochromocytoma Cells” (Molecules, 2022).

The nature of data set [1]: Lipophilicity logD7.4 by HPLC method. It is filed as physicochemical. Particulars: HPLC retention on ODP-50 4B column (Shodex Asahipak), phosphate buffer pH 7.4. How it is done: The lipophilicity of all synthesized compounds was determined as logD7.4, HPLC value by an HPLC method originally described by Donovan and Pescatore.
The logD7.4HPLC value was determined as previously reported by us utilizing an HPLC method originally described by Donovan and Pescatore.

Another data set deals with T1, purified ovine COX-1 (Ovis aries, UniProt P05979).
T1 construct: purchased Cayman Chemical 700100
T1 sequence (P05979 25-600): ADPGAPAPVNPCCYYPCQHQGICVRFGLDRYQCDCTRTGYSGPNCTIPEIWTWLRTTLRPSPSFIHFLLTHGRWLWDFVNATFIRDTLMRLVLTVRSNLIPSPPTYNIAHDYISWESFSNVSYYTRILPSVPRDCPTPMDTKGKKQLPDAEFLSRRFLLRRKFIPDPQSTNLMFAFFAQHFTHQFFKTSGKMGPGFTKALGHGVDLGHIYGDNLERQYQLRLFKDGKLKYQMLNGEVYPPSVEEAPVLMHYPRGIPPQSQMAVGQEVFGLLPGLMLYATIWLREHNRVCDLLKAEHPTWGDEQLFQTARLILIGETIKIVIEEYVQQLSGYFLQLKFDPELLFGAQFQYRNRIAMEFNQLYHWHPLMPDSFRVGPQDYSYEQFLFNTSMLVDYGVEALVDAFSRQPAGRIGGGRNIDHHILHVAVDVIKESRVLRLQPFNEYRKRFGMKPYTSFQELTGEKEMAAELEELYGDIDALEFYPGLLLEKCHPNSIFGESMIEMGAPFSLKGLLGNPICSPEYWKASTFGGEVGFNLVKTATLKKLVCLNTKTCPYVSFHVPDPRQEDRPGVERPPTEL
Also noted: method as in PMID 26081289. The following applies: previously reported ref 49; cited from earlier work.

In the next data set the target is T2, recombinant human COX-2 (Homo sapiens, UniProt P35354).
T2 construct: purchased Cayman Chemical 700100
T2 sequence (P35354 18-604): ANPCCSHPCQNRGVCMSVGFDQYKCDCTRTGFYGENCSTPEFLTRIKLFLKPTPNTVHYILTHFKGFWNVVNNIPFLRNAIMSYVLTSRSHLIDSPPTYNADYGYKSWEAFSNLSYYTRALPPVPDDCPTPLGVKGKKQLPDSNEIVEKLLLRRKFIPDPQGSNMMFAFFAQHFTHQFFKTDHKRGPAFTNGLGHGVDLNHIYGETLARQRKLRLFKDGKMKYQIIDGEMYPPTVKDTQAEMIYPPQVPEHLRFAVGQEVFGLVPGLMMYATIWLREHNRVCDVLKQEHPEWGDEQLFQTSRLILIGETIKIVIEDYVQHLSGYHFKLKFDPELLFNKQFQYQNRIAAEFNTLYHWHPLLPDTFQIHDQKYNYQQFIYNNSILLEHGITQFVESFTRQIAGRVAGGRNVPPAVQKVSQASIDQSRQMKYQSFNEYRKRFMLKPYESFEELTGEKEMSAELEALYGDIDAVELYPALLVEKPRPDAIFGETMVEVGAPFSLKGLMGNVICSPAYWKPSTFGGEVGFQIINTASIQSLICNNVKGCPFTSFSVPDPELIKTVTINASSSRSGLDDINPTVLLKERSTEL
Also noted: method as in PMID 26081289. The following applies: cited from earlier work; for SI: COX-1 vs COX-2 selectivity index, COX inhibition previously reported ref 49.

Data set [2] in a line: Fluorometric NO release assay (Griess assay). It is filed as physicochemical. The following applies: 24 h, 37 °C, relative to initial molar amount of compound. Here is the method:
The nitric oxide releasing properties of the nitroester-derivatives 5a–d, 5f, and 6a–d were evaluated using a fluorometric Griess assay in the presence and absence of cysteine to determine thiol-dependent and spontaneous release of nitric oxide (Figure 3).
Nitric oxide release of compounds within 24 h at 37 °C was measured using the fluorometric nitric oxide microplate assay kit ab65327 (Abcam, Cambridge, UK). For measurement of spontaneous release, 1.8 nmol of compounds were incubated in 75 µL Dulbecco’s PBS containing 0.05% v/v residual DMSO and 2.5 mM DTPA (pH = 7.1) for 24 h at 37 °C. Thiol-dependent release was measured accordingly in presence of 2.5 mM cysteine. Two series of nitrate standards were prepared (0.2−1 nmol) in 75 µL incubation buffer, in presence or absence of cysteine, respectively. According to the manufacturer’s instructions, all nitrate content in samples and standards was enzymatically converted into nitrite through incubation with nitrate reductase for 2 h at room temperature, and the resulting nitrite content (total nitric oxide) was determined through reaction with 2,3-diaminonaphthalene followed by measurement of fluorescence intensity at λex/em = 360/450 nm using a microplate reader. Nitrite content in samples was calculated from linear regression of standards and expressed as relative nitric oxide release (%) normalized to the initial molar amount of compound. NONOate served as positive control.
Figure 3 Spontaneous and thiol-dependent NO^• release from NO-COXIBs; measured using fluorometric Griess assay (n = 2); relative release indicates the percentage of soluble nitrogen species (nitrate + nitrite) detected in the incubation buffer after 24 h compared to the initial molar amount of compounds; NO^• release of NONOate (positive control) exceeded the maximum detection limit; data presented as mean ± range.

For data set [3], the system named is MPC-HIF2α tumor spheroids. Description: Spheroid regrowth assay with external X-ray irradiation. It is filed as cell-based, mouse. The following applies: X-ray 15 Gy; 10 µM compound added 2 h post irradiation; controls 83%. How it is done: (§1) As a first pilot study, growth responses of MPC-HIF2α spheroids were investigated after two different radiation treatments such as single-dose external beam irradiation (X-ray) and incubation with [^177Lu]LuCl3, respectively. NO-COXIBs were tested at 10 µM for additional effects on radiation treatments against a vehicle-treated control (w/o) and celecoxib (Ce).
The log2-fold change in spheroid diameter is given as a standardized parameter for spheroid growth, which is positive for growing, near zero for stagnating and negative for shrinking spheroids. Furthermore, regrowth probabilities are given as a parameter to compare how many of the overall studied spheroids in one group recovered within 14 days. Radioprotective effects occurred when compounds were added 2 h before irradiation. In this setup, all compounds accelerated the increase in spheroid size during the regrowth phase compared to controls (Figure 5A, upper panel). Regrowth probabilities of 67–100% under NO-COXIB treatment remained however similar to controls (83%). Radiosensitizing effects occurred when compounds were added 2 h post irradiation. In this setup, all compounds decelerated the increase in spheroid size during the regrowth phase compared to controls.
(§2) Genetically modified mouse pheochromocytoma (MPC) cells expressing a codon-optimized Epas1 gene (encoding HIF2α) were cultured as three-dimensional tumor spheroids as published elsewhere. External X-ray beam radiation treatment and [^177Lu]LuCl3 radionuclide treatment was performed as reported previously with some modifications. In brief, spheroids were irradiated with a 200 kV photon beam using a Maxishot X-ray system equipped with a Y.TU/320-D03 tube (YXLON, Hamburg, Germany), growth of spheroids (n = 6) with diameters between 300−400 µm was measured in response to one fixed radiation dose, 15 Gy for X-ray treatment, and 0.25 MBq/mL of [^177Lu]LuCl3 for radionuclide treatment corresponding to a cumulative dose of approximately 2 Gy delivered for 6 days. The applied radiation doses were selected based on the half-maximal spheroid control doses (SCD50) as previously determined for MPC HIF2α spheroids by us. Spheroids were considered as regrown at 100 µm increase in diameter compared to treatment start or at a diameter growth rate of 15 µm per day. Results are reported as spheroid regrowth probability (%).
(§3) Figure 5 Effects of NO-COXIBs on radiation treatments of MPC-HIF2α tumor spheroids. (A) Growth responses to X-ray treatment with a radiation dose of 15 Gy in combination with 10 µM NO-COXIBs added to the medium at indicated time points before or after irradiation. (B) Growth responses to [^177Lu]LuCl3 treatment with an initial activity concentration of 0.25 MBq/mL in combination with NO-COXIBs; log2 fold changes in diameter indicate the number of diameter doublings compared to treatment start; 14-day regrowth probability indicates the fraction of spheroids able to regrow within 14 days after treatment start; (black arrows) time point or duration of radiation treatment; (w/o) vehicle controls are shown as black lines; (Ce) celecoxib.

The subject of data set [4] is MPC-HIF2α tumor spheroids. The experiment in a line: Spheroid regrowth assay with [177Lu]LuCl3 treatment. Particulars: 10 µM compound with 0.25 MBq [177Lu]LuCl3 for six days; for 14-day regrowth probability: controls 50%. It is filed as cell-based, mouse.
Text: Radionuclide therapy is a fast-evolving treatment modality gaining more importance in treating cancer. For treatment of pheochromocytomas and paragangliomas, in particular, somatostatin type 2 receptor-targeted radionuclide therapy with [^177Lu]Lu-(Tyr^3)octreotate is currently investigated in clinical controlled trials (e.g., NCT04029428, NCT03923257, NCT03206060). To assess the additional effects of NO-COXIBs on the outcome of Lu-177 therapy, a simplified in vitro setup was used here, where MPC-HIF2α tumor spheroids were treated with 10 µM of the compounds and simultaneously 0.25 MBq of [^177Lu]LuCl3 for six days.
as §2, §3

The test system of a further data set is MPC-HIF2a spheroids. Description: Growth of non-irradiated tumor spheroids. The data set is classed as cell-based, mouse. Particulars: 10 µM compound, linear regression between 0 and 9 days. How it is done:
as §1
4. Growth-rate of tumor spheroids in the presence of NO -COXIBS without radiation treatment
Compound Diameter growth rate
Table S2. Effects of NO-COXIBs on spheroid growth; diameter growth rates of non-irradiated MPC-HIF2a spheroids in presence of 10 µM of compounds determined from linear regression between 0 and 9 days after treatment start; (w/o) vehicle control treated with DMSO

For another data set, the system named is A2058 cells. Set-up: method as in PMID 26081289. Particulars: 10 µM, DMSO control 6.6 Gy; cited from earlier work.
The subject of a further data set is Mel-Juso cells. Set-up: method as in PMID 26081289. Particulars: 10 µM, DMSO control 4.2 Gy; cited from earlier work.
Details of data set [5]: method as in PMID 25547413. Particulars: cited from earlier work.

pIC50: −log10 of the molar value.

Consider `Cc1ccc(-c2cc(CCl)nn2-c2ccc(S(N)(=O)=O)cc2)cc1` [4e, 4-[3-(Chloromethyl)-5-(p-tolyl)-1H-pyrazol-1-yl]benzenesulfonamide], for which, in [1], the chromatographic logD (usually lipophilicity estimated from chromatographic retention) was 3.14. Also, the pIC50 (as a rule, the negative decadic logarithm of the IC50, by convention in mol/L) was less than 4.00 at purified ovine COX-1 and 5.90 at recombinant human COX-2 (human COX-2, previously reported ref 49). In addition, the SI on recombinant human COX-2 is reported as greater than 78.

In turn, `Cc1ccc(-c2c(Cl)c(CO[N+](=O)[O-])nn2-c2ccc(S(N)(=O)=O)cc2)cc1` [5a, [4-Chloro-1-(4-sulfamoylphenyl)-5-(p-tolyl)-1H-pyrazol-3-yl]methyl nitrate] showed a chromatographic logD in data set [1] of 3.76. Further, the “thiol-dependent NO release” value in data set [2] (2.5 mM cysteine) was 29–53%. For the same compound, in [2] (absence of cysteine), the “spontaneous NO release” value is listed as 10–22%. Moreover, the results for the 14-day regrowth probability in [3] and in data set [4] were 17% and 60–80%, respectively. Also, in data set [4] (compared to controls), the “growth response (spheroid size)” value is on record as “prevented spheroids from shrinking in size”. In the data set on MPC-HIF2a spheroids, the “Diameter growth rate ± SEM” value was 54.1 ± 5.2 µm/day. The entries for the “required radiation dose for 10% survival” value with A2058 cells and with Mel-Juso cells were 5.2 Gy and 3.2 Gy, respectively.

In turn, `Cc1ccc(-c2cc(CO[N+](=O)[O-])nn2-c2ccc(S(N)(=O)=O)cc2)cc1` [5e, [1-(4-Sulfamoylphenyl)-5-(p-tolyl)-1H-pyrazol-3-yl]methyl nitrate] yielded a chromatographic logD in data set [1] of 3.4. The negative-log IC50 (pIC50) on purified ovine COX-1 was less than 4.00. Further, the SI at recombinant human COX-2 is on record as greater than 112.

Take `Cc1ccc(-c2cc(C(F)(F)F)nn2-c2ccc(S(N)(=O)=O)cc2)cc1` [celecoxib]: the results for the 14-day regrowth probability in [3] and in [4] were 0% and 40%, respectively. Moreover, the “Diameter growth rate ± SEM” value in the data set with MPC-HIF2a spheroids turned out to be 57.3 ± 4.0 µm/day. The “scavenging effects on OH•, O2•−, and OCl-” value in [5] was “did not show any scavenging effects”.
